Legend:
[1] = test system: zymostenol accumulation (EBP) in EpiSC-derived OPCs; assay: GC/MS-based sterol profiling, zymostenol accumulation in EpiSC-derived OPCs; assay type: cell-based, mouse; conditions: Mus musculus, 24 h, EpiSC-derived OPCs, 24 hr, 8 doses from 0.15 nM to 333 nM; read-out: Mouse Zymostenol GCMS EC50
Protocol: To assess effects of treatments on OPCs, all treatments were assayed in two or more independent platings of epiblast stem cell-derived OPCs (EpiSC). EpiSC-derived OPCs were obtained using in vitro differentiation protocols and culture conditions described previously (Najm et al, 2011, Nature Methods). OPCs were expanded and frozen down in aliquots. OPCs were thawed into growth conditions for at least one passage before use in further assays.
Sterols were monitored using a modified Folch wash protocol (Hubler et al, 2018, Nature). EpiSC-derived OPCs were plated at 100,000 cells per well in PO- and laminin-coated 96-well plates in N2B27 media without growth factors. After 24 hours, cells were rinsed with saline and plates were frozen. Cholesterol-d7 standard was then added to each well before drying under nitrogen stream and derivatization with 55 μl of bis(trimethylsilyl) trifluoroacetamide. After derivatization, 2 μl were analyzed by gas chromatography/mass spectrometry using an Agilent 5973 Network Mass Selective Detector equipped with a 6890 gas chromatograph system and a HP-5MS capillary column (30 m×0.25 mm×[…]). Samples were analyzed in full scan mode using electron impact ionization; ion fragment peaks were integrated to calculate sterol abundance, and quantitation was relative to cholesterol-d7. The following ion fragments were used to quantitate each metabolite: cholesterol-d7 (465), FF-Mas (482), cholesterol (368), zymostenol (458), zymosterol (456), Desmosterol (456, 343), 7-dehydrocholesterol (456, 325), lanosterol (393), lathosterol (458), 14-dehydrozymostenol (456, 351). […] All standards were obtained from Avanti Polar Lipids unless otherwise indicated. Calibration curves were generated by injecting varying concentrations of sterol standards and maintaining a fixed amount of cholesterol-D7. For normalized zymostenol accumulation results, the total amount of zymostenol measured after drug treatment was divided by the total amount of zymostenol accumulated after 24 hr treatment with 100 nM positive control reference.

[2] = target: human emopamil binding protein and human 7-dehydrocholesterol reductase (hEBP-DHCR7) (Homo sapiens (Human), UniProt Q15125); assay: hEBP-DHCR7 radioligand binding assay (filter binding, membranes of co-expressing HEK293 cells); conditions: competition with [3H] radioligand, 8 doses 0.06 to 5000 nM, Ki calculated from IC50
Protocol: Membrane Preparation: human emopamil binding protein and human 7-dehydrocholesterol reductase co-expressing cells were generated by transient transfecting host human embryonic kidney (HEK) 293 cells with 2 DNA constructs containing each protein's coding sequence. Cells were suspension cultured at 37° C. with 5% CO2 in […] 293 Expression Medium (Thermofisher). Whole cell membrane was prepared by harvesting the cell pellet, adding cold membrane buffer (50 mM Tris, pH7.5, 1× Roche COMPLETE EDTA-free protease inhibitor cocktail) 10 times volume of the cell pellets weight, lysing cell pellet on ice by using Dounce homogenizer, spinning at 200 g 4° C. for 15 min, collecting supernatant and spinning again at 25000 g 4° C. for 50 min, transferring pellet to Dounce homogenizer, re-suspending pellet by homogenizing in membrane buffer on ice to reach ˜25 mg/mL, then keeping whole cell membrane aliquots at −80° C.
Compounds were prepared in a 96-well U bottom plate (Corning Cat #7007) using an Echo550 machine and 10 mM compound DMSO stock solution, followed by an 8-dose 5-fold serial dilutions protocol with final testing compound concentration ranging from 0.06 to 5000 nM, with DMSO back fill to 100 nL/well and n=2. […] The UniFilter-96 GF/B plates (PerkinElmer Cat #6005177) were pre-treated by adding 50 μl/well of 0.3% (v/v) Polyethylenimine (PEI) (branched, Sigma Cat #408727) to UniFilter-96 GF/B plates. The plates were sealed and incubated at 4° C. for 3 hrs. Then, the plates were washed with ice-cold assay buffer 3 times. The radioligand binding assay was prepared by adding assay buffer diluted hEBP-DHCR7 membrane at 66.7 µg/ml×150 μl/well into the 96-well compound plate to reach 10 μg membrane per well. Then, the assay buffer diluted [3H]—(S)-6-(2-Methyl-3-(6-(trifluoromethyl)pyridin-3-yl)propyl)-2-thia-6-azaspiro[3.4]octane 2,2-dioxide (Moravek, Cat #MT-1003106) was added at 25 nM×50 μl/well. Following this, the plate was centrifuged at 1000 rpm for 30 secs. The plate was then sealed and agitated at 600 rpm at 22° C. for 5 min, and then incubated at 22° C. for 3 hrs. The incubation was stopped by transferring the binding solution to the pre-treated UniFilter-96 GF/B plate, vacuum filtrated, and then washed four times with ice-cold assay buffer. Following this, the plates were dried at 37° C. for 45 min. The plates were then sealed at the bottom. 40 µl/well of scintillation cocktail was added to the plates. A MicroBeta2 microplate counter was then used to read the plate and analyze the data. For reference and test compounds, the results are expressed as % Inhibition, using the normalization equation: N=100−100×(U−C2)/(C1−C2), where U is the unknown value, C1 is the average of high controls, and C2 is the average value of low controls.

Sequence of human emopamil binding protein and human 7-dehydrocholesterol reductase (hEBP-DHCR7) (Q15125 whole entry): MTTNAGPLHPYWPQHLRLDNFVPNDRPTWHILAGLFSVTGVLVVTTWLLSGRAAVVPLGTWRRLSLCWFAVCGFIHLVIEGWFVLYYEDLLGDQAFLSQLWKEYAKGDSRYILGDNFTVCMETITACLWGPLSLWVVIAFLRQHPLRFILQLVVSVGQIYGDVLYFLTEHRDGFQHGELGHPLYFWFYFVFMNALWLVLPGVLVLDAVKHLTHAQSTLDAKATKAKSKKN

SMILES | EC50 [1] [nM] | Ki [2] [nM]
CC(C)n1nc(-c2cccc(C(F)(F)F)n2)cc1[C@H]1[C@@H]2C[C@@H](N3CCN(C4CCC4)CC3)C[C@@H]21 [Compound 84, 1-Cyclobutyl-4-((1R,3s,5S,6r)-6-(1-isopropyl-3-(6-(trifluoromethyl)pyridin-2-yl)-1H-pyrazol-5-yl)bicyclo[3.1.0]hexan-3-yl)piperazine] | 3.49 | 27.8
CC(C)n1nc(-c2cccc(C(F)(F)F)n2)cc1[C@H]1[C@@H]2C[C@H](N3CCN(C4CCC4)CC3)C[C@@H]21 [Compound 85, 1-Cyclobutyl-4-((1R,3r,5S,6r)-6-(1-isopropyl-3-(6-(trifluoromethyl)pyridin-2-yl)-1H-pyrazol-5-yl)bicyclo[3.1.0]hexan-3-yl)piperazine] | 279 | 472
CC(C)n1nc(-c2cnc(C(F)(F)F)nc2)nc1[C@H]1CC[C@H](N2CCOCC2)C1 [Compound 94, 4-((1S,3S)-3-(1-Isopropyl-3-(2-(trifluoromethyl)pyrimidin-5-yl)-1H-1,2,4-triazol-5-yl)cyclopentyl)morpholine] | 187 | 243
CC(C)n1nc(-c2cnc(C(F)(F)F)nc2)cc1[C@H]1[C@@H]2C[C@@H](N3CCOC[C@H]3C)C[C@@H]21 [Compound 96, (R)-4-((1R,3s,5S,6R)-6-(1-Isopropyl-3-(2-(trifluoromethyl)pyrimidin-5-yl)-1H-pyrazol-5-yl)bicyclo[3.1.0]hexan-3-yl)-3-methylmorpholine] | 928 | 631
CC(C)n1nc(-c2ccnc(C(F)(F)F)n2)cc1[C@H]1[C@@H]2C[C@H](N3CCOCC3)C[C@@H]21 [Compound 99, 4-((1R,3r,5S,6r)-6-(1-Isopropyl-3-(2-(trifluoromethyl)pyrimidin-4-yl)-1H-pyrazol-5-yl)bicyclo[3.1.0]hexan-3-yl)morpholine] | 62 | 87.8
CC(C)n1nc(-c2ccnc(C(F)(F)F)n2)cc1[C@H]1[C@@H]2C[C@@H](N3CCOC[C@@H]3C)C[C@@H]21 [Compound 100, (S)-4-((1R,3s,5S,6S)-6-(1-Isopropyl-3-(2-(trifluoromethyl)pyrimidin-4-yl)-1H-pyrazol-5-yl)bicyclo[3.1.0]hexan-3-yl)-3-methylmorpholine] | 5.99 | 11
CC(C)n1nc(-c2ccnc(C(F)(F)F)n2)cc1[C@H]1[C@@H]2C[C@@H](N3CCOC[C@H]3C)C[C@@H]21 [Compound 102, (R)-4-((1R,3s,5S,6S)-6-(1-Isopropyl-3-(2-(trifluoromethyl)pyrimidin-4-yl)-1H-pyrazol-5-yl)bicyclo[3.1.0]hexan-3-yl)-3-methylmorpholine] | 55 | 73
CC(C)n1nc(-c2cncc(C(F)(F)F)n2)cc1[C@H]1[C@@H]2C[C@H](N3CCOCC3)C[C@@H]21 [Compound 108, 4-((1R,3r,5S,6r)-6-(1-Isopropyl-3-(6-(trifluoromethyl)pyrazin-2-yl)-1H-pyrazol-5-yl)bicyclo[3.1.0]hexan-3-yl)morpholine] | 62 | 87.8
CC(C)n1nc(-c2cncc(C(F)(F)F)c2)nc1[C@H]1[C@@H]2C[C@@H](N3CCOC[C@H]3C)C[C@@H]21 [Compound 119, (R)-4-((1R,3s,5S,6R)-6-(1-Isopropyl-3-(5-(trifluoromethyl)pyridin-3-yl)-1H-1,2,4-triazol-5-yl)bicyclo[3.1.0]hexan-3-yl)-3-methylmorpholine] | 213 | 584
CC(C)n1nc(-c2cncc(C(F)(F)F)c2)nc1[C@H]1[C@@H]2C[C@@H](N3CCOC[C@@H]3C)C[C@@H]21 [Compound 121, (S)-4-((1R,3s,5S,6R)-6-(1-Isopropyl-3-(5-(trifluoromethyl)pyridin-3-yl)-1H-1,2,4-triazol-5-yl)bicyclo[3.1.0]hexan-3-yl)-3-methylmorpholine] | 193 | 564
CC(C)n1nc(-c2cncc(C(F)(F)F)c2)nc1[C@H]1[C@@H]2C[C@H](N3CCOC[C@@H]3C)C[C@@H]21 [Compound 122, (S)-4-((1R,3r,5S,6R)-6-(1-Isopropyl-3-(5-(trifluoromethyl)pyridin-3-yl)-1H-1,2,4-triazol-5-yl)bicyclo[3.1.0]hexan-3-yl)-3-methylmorpholine] | 7.81 | 26.6
CC[C@H]1CN([C@@H]2CC[C@H](c3nc(-c4cncc(F)c4)nn3C(C)C)C2)CCO1 [Compound 123, (S)-2-Ethyl-4-((1R,3S)-3-(3-(5-fluoropyridin-3-yl)-1-isopropyl-1H-1,2,4-triazol-5-yl)cyclopentyl)morpholine] | 10.6 | 40.4
CC[C@@H]1CN([C@@H]2CC[C@H](c3nc(-c4cncc(F)c4)nn3C(C)C)C2)CCO1 [Compound 124, (R)-2-Ethyl-4-((1R,3S)-3-(3-(5-fluoropyridin-3-yl)-1-isopropyl-1H-1,2,4-triazol-5-yl)cyclopentyl)morpholine] | 376 | 2400
CC(C)n1nc(-c2cncc(Cl)c2)nc1[C@H]1CC[C@H](N2CCOC[C@@H]2C)C1 [Compound 125, (S)-4-((1S,3S)-3-(3-(5-Chloropyridin-3-yl)-1-isopropyl-1H-1,2,4-triazol-5-yl)cyclopentyl)-3-methylmorpholine] | 716 | 245
CC(C)n1nc(-c2cncc(Cl)c2)nc1[C@H]1CC[C@@H](N2CCOC[C@@H]2C)C1 [Compound 126, (S)-4-((1R,3S)-3-(3-(5-Chloropyridin-3-yl)-1-isopropyl-1H-1,2,4-triazol-5-yl)cyclopentyl)-3-methylmorpholine] | 6.79 | 30.8
CC[C@H]1CN([C@@H]2CC[C@H](c3nc(-c4ccc(C(F)(F)F)nc4)nn3C(C)C)C2)CCO1 [Compound 128, (S)-2-Ethyl-4-((1R,3S)-3-(1-isopropyl-3-(6-(trifluoromethyl)pyridin-3-yl)-1H-1,2,4-triazol-5-yl)cyclopentyl)morpholine] | 16.6 | 118
CC[C@@H]1CN([C@@H]2CC[C@H](c3nc(-c4cncc(Cl)c4)nn3C(C)C)C2)CCO1 [Compound 129, (R)-4-((1R, 3S)-3-(3-(5-Chloropyridin-3-yl)-1-isopropyl-1H-1,2,4-triazol-5-yl)cyclopentyl)-2-ethylmorpholine] | 2.79 | 23.2
CC(C)n1nc(-c2cnc(C(F)(F)F)nc2)nc1[C@H]1CC[C@H](N2CCO[C@H](C)C2)C1 [Compound 145, (R)-4-((1S,3S)-3-(1-isopropyl-3-(2-(trifluoromethyl)pyrimidin-5-yl)-1H-1,2,4-triazol-5-yl)cyclopentyl)-2-methylmorpholine] | 83.5 | 299

Reference: patent US20260008775A1, “AZOLE MODULATORS OF CHOLESTEROL BIOSYNTHESIS AND THEIR USE FOR PROMOTING REMYELINATION” (GENENTECH, INC., priority 2022, published 2026)
